The results in this text go back to patent US8242082B2, “Antibacterial peptide” (Seikagaku Corporation, priority 2004, dated 2012).

“Also recorded” adds a separate entry of the source. No end group written: not given here.

Test [1] concerns E. coli, S. aur, MSSA, and MRSA. The experiment in a line: Determination of antibacterial (bacteriocidal) effect, Alamar Blue. Format: cell-based, Escherichia coli; Staphylococcus aureus. To be noted: for antibacterial effect: gram-negative and gram-positive bacteria, 37° C. for six hours, absorbance difference with Alamar Blue; for antibacterial effect, comparison among test substances: relative ranking from the figures. As for the experimental part:
Each of E. coli, S. aur, MSSA, and MRSA was subjected to shaking culture overnight at 37° C. by use of a Muller-Hinton medium (product of DIFCO), and the cells precipitated through centrifugation were separated and washed with a Phenol Red-free RPMI 1640 medium. Strains of E. coli, S. aur, MSSA, and MRSA were prepared so that the cell concentrations were adjusted to 1×10^8 CFU/mL, 2×10^8 CFU/mL, 2×10^8 CFU/mL, and 2×10^8 CFU/mL, respectively, the concentrations being determined from the corresponding absorbance values at 650 nm by means of a spectrophotometer.
By use of a 96-well plate, each cell suspension (1×10^6 CFU/mL) (100 μL), a test substance (10 μL), an RPMI 1640 medium (70 μL), and an Alamar Blue reagent (product of BIOSOURCE) (20 μL) were admixed. In the presence of Alamar Blue, pink fluorescence attributed to live cells is observed, whereas the admixture remains blue when the cells are dead.
Each admixture was incubated at a constant temperature of 37° C. for six hours, and the difference between absorbance at 560 nm and that at 595 nm was obtained.
The procedure of the aforementioned <2-1> was repeated, except that 1-18, 1-18m, and 1-18 m2 were tested and the difference between absorbance at 550 nm and that at 590 nm was measured, to thereby determine the antibacterial effect of the test substances with respect to each of E. coli, S. aur, MSSA, and MRSA. […] In FIG. 6, the test results of 1-18 are represented by “CAP11,” and the black dots, white dots, black squares, and white squares denote the antibacterial effects to E. coli, S. aur, MSSA, and MRSA, respectively (X-axis: test substance concentration, Y-axis: difference between absorbance at 550 nm and that at 590 nm).

Test [2] has as its system binding between LPS and RAW 246.7 cells. Put plainly: Determination of LPS-cell-binding inhibitory effect (Alexa 488-labeled LPS, FACS). Format: cell-based. As to conditions: for LPS-cell-binding inhibitory effect: RAW 246.7 cells, Alexa 488-labeled LPS 100 ng/mL; for LPS-cell-binding inhibitory effect, comparison among test substances: relative ranking from the figures. As for the experimental part:
RAW 246.7 cells (macrophage cell strain) were cultured by use of an RPMI 1640 medium containing 10% FCS and collected. The collected cells were diluted with the same medium so that the cell concentration was adjusted to 5×10^5/mL. To the diluted liquid (500 μL), a test substance (5 μL) was added, and the mixture was subjected to shaking culture at 37° C. for 10 minutes. Subsequently, LPS that had been labeled with Alexa 488 (final concentration: 100 ng/mL) was added to the culture, and the mixture was subjected to shaking culture at 37° C. for 15 minutes. The collected cells were washed with PBS (3 mL×2) and suspended again in PBS (300 μL). Binding of Alexa 488-labeled LPS was measured through FACS. Control samples (a sample containing no labeled LPS (background) and an antibacterial-peptide-free sample (maximum LPS binding degree) were treated similarly, and the degree of the inhibitory effect on binding between LPS and RAW 246.7 cells was determined on the basis of comparison with control samples.
In a manner similar to that of the aforementioned <2-2>, the LPS-cell-binding inhibitory effect of the same test substances was determined. […] In FIG. 7, the test results of 1-18, 1-18m, and 1-18 m2 are represented by white dots, black dots, and black squares, respectively (X-axis: test substance concentration, Y-axis: percent binding of LPS to cells).

Test [3] has as its system Candida albicans (CA53133 strain). The experiment in a line: Determination of antibacterial (bacteriocidal) effect (antifungal effect) to fungi, Alamar Blue. Format: cell-based. As to conditions: for antibacterial (bacteriocidal) effect to fungi: Candida albicans, 35° C. for fourteen hours. As for the experimental part:
Candida albicans (CA53133 strain) was grown in Sabouraud dextrose agar. Colonies formed in the agar were collected and suspended to serum-free and Phenol Red-free RPM11640 liquid medium (SIGMA). The concentration of cells in the medium was determined from the corresponding absorbance value at 550 nm by means of spectrophotometer, and the concentration is adjusted to 0.5−2.5×10^4 CFU/mL. By use of a 96-well plate, each cell suspension (0.5-2.5×10^4 CFU/mL) (20 μL), a test substance (CAP11, 1-18 or 1-18 m2) (10 μL), an RPMI 1640 liquid medium (150 μL), and an Alamar Blue reagent (product of BIOSOURCE) (20 μL) were admixed. Each admixture was incubated at a constant temperature of 35° C. for fourteen hours, and the difference between absorbance at 550 nm and that at 595 nm was obtained.

For the substance “9-26: partial peptide, 9th to 26th amino acid residues of the CAP11 monomer”, the antibacterial effect result in test [1] is reported as “exhibited an antibacterial effect”. For the same substance, in test [2], the LPS-cell-binding inhibitory effect entry is “an LPS-cell-binding inhibitory effect”.
Take “16-33: partial peptide, 16th to 33th amino acid residues of the CAP11 monomer (LGRKIGKTGRKVWKAWRE; A partial peptide of CAP11)”: in test [1], the antibacterial effect result is “exhibited an antibacterial effect”. Further, in test [2], the LPS-cell-binding inhibitory effect result is given as “an LPS-cell-binding inhibitory effect”.
Regarding GLRKKFRKTRKRIQKLGR [1-18], in test [1], the antibacterial effect result was “exhibited an antibacterial effect; also recorded: exhibit an antibacterial (bacteriocidal) effect” and the “antibacterial effect, comparison among test substances” value was “most potent antibacterial effect; also recorded: then 1-18”. For the same substance, in test [2], the LPS-cell-binding inhibitory effect entry is “exhibit an LPS-cell-binding inhibitory effect” and the “LPS-cell-binding inhibitory effect, comparison among test substances” value is on record as “most potent; also recorded: then 1-18”. Besides, the “antibacterial (bacteriocidal) effect to fungi” value (shortened to “antibacterial … to fungi”) in test [3] is “exhibit an antibacterial (bacteriocidal) effect to fungi”.
With GLRKLFRKLLKLIQKLLR [1-18m], the antibacterial effect entry in test [1] is “exhibit an antibacterial (bacteriocidal) effect”. Further, the LPS-cell-binding inhibitory effect result in test [2] was “exhibit an LPS-cell-binding inhibitory effect”.
As to “KLRKLFRKLLKLIRKLLR [1-18 m2, synthesized and substituted form of CAP11 (1-18)]”, in test [1], the antibacterial effect entry is reported as “exhibit an antibacterial (bacteriocidal) effect” and the “antibacterial effect, comparison among test substances” value is recorded as “strongest antibacterial effect”. Moreover, in test [2], the LPS-cell-binding inhibitory effect result is listed as “exhibit an LPS-cell-binding inhibitory effect” and the “LPS-cell-binding inhibitory effect, comparison among test substances” value is on record as “strongest effect”. For the same substance, in test [3], the “antibacterial … to fungi” value is recorded as “exhibit an antibacterial (bacteriocidal) effect to fungi”. Besides, the “antifungal effect, comparison among test substances” value in test [3] (relative ranking from FIG. 8) is given as “strongest antifungal effect”.
For the substance “monomer: CAP11 monomer having 43 amino acid units and no cysteine disulfide bond (GLRKKFRKTRKRIGKLGRKIGKTGRKVWKAWREYGQIPYPCRI; A partial peptide of CAP11) [reference compound]”, the antibacterial effect entry in test [1] is on record as “exhibited an antibacterial effect”. In test [2], the LPS-cell-binding inhibitory effect entry was “an LPS-cell-binding inhibitory effect” and the “LPS-cell-binding inhibitory effect, comparison among test substances” value is given as “No significant difference”. The “antibacterial … to fungi” value in test [3] is “exhibit an antibacterial (bacteriocidal) effect to fungi”.
